Results reported in patent US6984619B1, “Method for protection against tumor metastasis formation” (Arch Development Corporation, priority 1999, dated 2006).
Where two headings read alike, the source gives them in different places.

Tests used:
MMP-2 = target: T1, MMP-2 (Homo sapiens, UniProt P08253); experiment: Gelatin zymography of medium from treated U251 glioma cells, MMP-2; type: cell-based; details: for inhibition of MMP-2 activity/secretion: 4 mM WR-1065 (SH)
T1 construct: Medium was isolated at the indicated times, centrifuged at 1000 rpm for 5 min to remove debris; endogenous in cells; host or cells: U251 human glioma cells (serum-free conditioned medium)
T1 sequence (P08253 110-660): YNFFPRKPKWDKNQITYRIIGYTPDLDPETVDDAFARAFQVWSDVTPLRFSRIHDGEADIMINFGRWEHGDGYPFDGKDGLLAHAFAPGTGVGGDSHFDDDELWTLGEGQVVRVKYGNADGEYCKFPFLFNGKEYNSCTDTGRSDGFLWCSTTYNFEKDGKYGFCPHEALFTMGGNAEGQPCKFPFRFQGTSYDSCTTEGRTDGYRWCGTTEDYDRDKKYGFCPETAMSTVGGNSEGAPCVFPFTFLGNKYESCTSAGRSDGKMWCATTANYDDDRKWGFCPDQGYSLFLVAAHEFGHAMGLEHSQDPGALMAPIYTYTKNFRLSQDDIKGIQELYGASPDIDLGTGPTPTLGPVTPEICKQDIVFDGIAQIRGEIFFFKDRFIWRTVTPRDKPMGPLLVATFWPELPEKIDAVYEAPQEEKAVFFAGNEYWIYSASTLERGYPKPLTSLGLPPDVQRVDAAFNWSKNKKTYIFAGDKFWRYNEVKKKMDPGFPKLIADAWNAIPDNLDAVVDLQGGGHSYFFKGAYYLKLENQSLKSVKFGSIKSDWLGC
Procedure: (§1) U251 Glioma Cells were grown to confluence in 6-well plates. Medium was removed, the cells washed twice with 37° C. PBS, and serum-free medium added. The cells were treated as follows: • Control—24 h, 48 h 72 h • 40 μM SH—24 h, 48 h 72 h (continuous exposure) • 10 ng/ml TNFα—24 h, 48 h, 72 h (continuous exposure). Medium was isolated at the indicated times, centrifuged at 1000 rpm for 5 min to remove debris, and stored at −80° C. until use. Protein was quantitated using the Bradford method. 252 ng of protein was loaded on 10% zymogram (gelatin) gels (Novex, San Diego, Calif.) and electrophoresed at 125 volts for 90 min in Tris-Glycine SDS buffer. After running, the gels were incubated in zymogram renaturing buffer (100 ml) for 30 min at room temperature with gentle agitation. The buffer was removed and fresh zymogram developing buffer (100 ml) added and the gels incubated at 37° C. overnight with gentle agitation. The following day the gels were stained with 0.5% coomassie blue R-250 for 30 min, and destained. Areas of protease activity show up as clear bands. This assay will detect MMP-2 and MMP-9.
(§2) Same protocol as above. Treatment conditions were as follows: • Control—24 h • 4 mM SH—24 h (continuous exposure) • 10 mM L-NAC—24 h (continuous exposure) • 10 mM L-NAC—24 h (continuous exposure) • 10 mM Captopril—24 h (continuous exposure) • 50 mM EDTA—24 h (chelator) • 4 mM SH+50 mM EDTA—24 h • 10 mM L-NAC+50 mM EDTA—24 h • 10 mM D-NAC+50 mM EDTA—24 h • 10 mM Captopril+50 mM EDTA—24 h • 40 μM SH—24 h • 10 ng/ml TNFα—24 h

MMP-9 = target: T2, MMP-9 (Homo sapiens, UniProt P14780); experiment: Gelatin zymography of medium from treated U251 glioma cells, MMP-9; type: cell-based; details: for inhibition of MMP-9 activity/secretion: 4 mM WR-1065 (SH)
T2 construct: Medium was isolated at the indicated times, centrifuged at 1000 rpm for 5 min to remove debris; endogenous in cells; host or cells: U251 human glioma cells (serum-free conditioned medium)
Procedure: as §1, §2

MnSOD gene expression = MnSOD gene expression in glioma cells (Northern blot); type: cell-based, human
Description: FIG. 6. Effect of Amifostine on MnSOD Expression. Kinetics of manganese superoxide dismutase (MnSOD) gene expression induced in human glioma tumor cells as a function of time by WR1065, the active form of amifostine, are presented for comparison. Also included in the upper right hand corner is a representative Northern blot used to quantitate gene expression. Gene expression was induced over 3-fold as compared to untreated controls.
As previously discussed, manganese superoxide dismutase (MnSOD) has been identified as important anti-oxidant gene whose expression reduces the malignant/metastatic phenotype of cancer cells (Safford et al., 1995). Tumor cells are relatively lower in MnSOD than are normal cells. Increasing MnSOD in tumor cells causes them to loose their ability to be metastatic. As described in FIG. 6, exposure of tumor cells to WR-1065 leads to enhanced gene expression of MnSOD. […] The peak level of MnSOD expression was almost twice that observed in normal human endothelial cells exposed to WR-1065.

MCa-K = experiment: Spontaneous lung metastasis assay, MCa-K adenocarcinoma; type: in vivo, C3Hf/Kam mice; details: 50 mg/kg WR-2721, MCaK tumor
Procedure: (§3) Animal system and experimental tumors. Experiments have been performed using C3Hf/Kam mice obtained from the University of Texas M.D. Anderson Cancer Center, Houston, Tex. Male mice were at least 110 days of age at the initiation of studies. Studies involving tumors included the use of two syngeneic adenocarcinomas (MCa-K and OCa-I,) and one sarcoma (SA-NH). Tumors were grown in the hind legs or flanks of animals. Single-cell suspensions of 5×10^5 viable tumor cells prepared from excised tumors were injected into the hind leg (spontaneous metastasis assay) or the lateral tail veins (artificial metastasis assay) of mice to develop pulmonary nodules (D. J. Grdina et al., 1974; D. J. Grdina et al., 1977; N. Suzuki et al., 1977; D. J. Grdina et al., 1978). […] Twenty-three days following amputation, the animals were sacrificed, their lungs removed, fixed in Bouin's solution, and lung metastases counted. For the artificial metastases studies, mice were sacrificed 14 days after tumor cell inoculation and lung metastases counted (D. J. Grdina et al., 1974; D. J. Grdina et al., 1977; N. Suzuki et al., 1977; D. J. Grdina et al., 1978).
(§4) Presented in Table 1 is a comparison of the effects of amifostine on the mean number of spontaneous metastases formed in the lungs of mice. […] The level of significance was determined using a t-test for binomial proportions (Walpole and Myers, 1978). […]

OCa-I = experiment: Spontaneous lung metastasis assay, OCa-I adenocarcinoma; type: in vivo, C3Hf/Kam mice; details: 50 mg/kg WR-2721, OCa tumor
Procedure: as §3, §4

[1] = cited from earlier work
angiostatin = experiment: Blood angiostatin by Western blot in mice with or without SA-NH tumor; type: in vivo, C3Hf/Kam mice
Procedure: FIG. 2. SA-NH Murine Tumor. Tumor cells (3–5×10^5) were injected into right leg muscle of C3Hf/Kam male mice. Each group consisted of 5 mice. Mice were injected i.p. with 50 mg/kg of Amifostine (Ami) one day after innoculation with viable tumor and every third day (4 times) until amputation (Amp). When tumors grew to 8–9 mm in diameter, the tumor-bearing leg was amputated. Blood was collected using a 1 ml tuberculine syringe rinsed with EDTA (100 mg/ml) or heparin and placed in an EDTA-coated microcentrifuge tube and centrifuged at 250 rpm for 10 min. The resulting supernatants were collected and frozen at −70° C. until assayed for angiostatin by Western blot analysis.
Low non-cytoprotective doses of Amifostine, in the range of 50 to 100 mg/kg, were administered every other day for six days to C3Hf/Kam mice bearing SA-NH sarcomas and twice thereafter following the surgical removal of the tumors. […] Amifostine or its free thiol form designated WR-1065 was further evaluated regarding three processes implicated in the metastatic process. (FIG. 2).

[2] = Blood level of WR-2721 in mice; type: in vivo; details: 400 mg/kg dose
Procedure: It is also understood that uptake after is species and organ/tissue dependent. The applicable conversion factors and physiological assumptions to be made concerning uptake and concentration measurement are well-known and would permit those of skill in the art to convert one concentration measurement to another and make reasonable comparisons and conclusions regarding the doses, afficacies and results described herein. By way of example only, in mice given 100 mg/kg WR-2721, 30-minute blood levels are reported at 49 micrograms/ml or 0.23 mM. Accordingly, a 400 mg/kg dose would correspond to a concentration of WR-2721 of about 1.0 mM. Likewise, a human subject given about 740 mg/m^2 of WR-2721 (by IV infusion) would have an initial plasma level at about 100 micromol/liter or 0.1 mM.

[3] = tested on: hprt locus in splenocytes; details: mice; cited from earlier work
SA-NH = experiment: Spontaneous lung metastasis assay, SA-NH sarcoma implanted i.m., leg amputated; type: in vivo, C3Hf/Kam mice; details: for probability of developing spontaneous metastases (FIG. 1): 200, 100 or 50 mg/kg i.p., greater effects at the lower doses
Procedure: Animal system and experimental tumors. Experiments have been performed using C3Hf/Kam mice obtained from the University of Texas M.D. Anderson Cancer Center, Houston, Tex. Male mice were at least 110 days of age at the initiation of studies. Studies involving tumors included the use of two syngeneic adenocarcinomas (MCa-K and OCa-I,) and one sarcoma (SA-NH). Tumors were grown in the hind legs or flanks of animals. Single-cell suspensions of 5×10^5 viable tumor cells prepared from excised tumors were injected into the hind leg (spontaneous metastasis assay) or the lateral tail veins (artificial metastasis assay) of mice to develop pulmonary nodules (D. J. Grdina et al., 1974; D. J. Grdina et al., 1977; N. Suzuki et al., 1977; D. J. Grdina et al., 1978). For the spontaneous metastases studies, each thiol was administered on the first day following tumor cell inoculation, and then every third day until the tumor reaches 8.0 to 8.5 mm in diameter. At that time the tumor bearing leg is amputated and thiols were administered two and four days later. Twenty-three days following amputation, the animals were sacrificed, their lungs removed, fixed in Bouin's solution, and lung metastases counted. For the artificial metastases studies, mice were sacrificed 14 days after tumor cell inoculation and lung metastases counted (D. J. Grdina et al., 1974; D. J. Grdina et al., 1977; N. Suzuki et al., 1977; D. J. Grdina et al., 1978).
This tumor is p53 wild-type (R. Schimming et al., 1999). A tumor cell suspension containing 5×10^5 viable SA-NH cells was implanted i.m. into the right thighs of three month old male C3Hf/Kam mice. When tumors grew to 8 to 8.5 mm in diameter, each tumor bearing leg was amputated and the animals were then sacrificed 23 days later to assess both the incidence of mice developing metastases and numbers of spontaneous lung metastases formed per mouse. To assess the effects of amifostine on this process, different groups of mice were injected i.p. with 200, 100, or 50 mg/kg of WR-2721 according to the following protocol: drug administration on the first day following inoculation with tumor cells and then every third day until amputation with a final injection 2 days later.
Presented in Table 1 is a comparison of the effects of amifostine on the mean number of spontaneous metastases formed in the lungs of mice. Table 2 presents data regarding the effects of amifostine on affecting the incidence of metastasis formation using these tumor systems. The level of significance was determined using a t-test for binomial proportions (Walpole and Myers, 1978). Treatment of animals with 50 mg/kg of amifostine reduced the incidence of spontaneous metastasis development by these tumors at a level of significance of p<0.025.

[4] = C3H mouse system; cited from earlier work
[5] = TNFα 10 ng/ml, continuous exposure

T2 sequence (P14780 94-707): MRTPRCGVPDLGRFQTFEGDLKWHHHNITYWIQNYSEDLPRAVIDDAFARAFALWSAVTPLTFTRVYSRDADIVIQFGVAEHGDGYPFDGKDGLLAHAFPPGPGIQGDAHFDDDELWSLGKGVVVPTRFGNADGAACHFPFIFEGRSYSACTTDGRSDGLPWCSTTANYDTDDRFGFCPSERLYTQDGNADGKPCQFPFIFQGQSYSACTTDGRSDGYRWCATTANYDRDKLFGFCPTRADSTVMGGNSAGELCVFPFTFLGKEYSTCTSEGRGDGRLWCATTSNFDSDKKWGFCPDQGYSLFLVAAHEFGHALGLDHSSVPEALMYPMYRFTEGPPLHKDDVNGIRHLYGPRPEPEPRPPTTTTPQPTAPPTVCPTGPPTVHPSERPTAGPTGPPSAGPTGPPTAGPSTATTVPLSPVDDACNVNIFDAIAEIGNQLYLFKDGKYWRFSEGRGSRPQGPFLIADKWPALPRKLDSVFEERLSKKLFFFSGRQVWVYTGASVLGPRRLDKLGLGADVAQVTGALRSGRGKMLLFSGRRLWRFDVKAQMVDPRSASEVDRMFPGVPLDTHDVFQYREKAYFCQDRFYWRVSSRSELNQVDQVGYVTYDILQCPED

CC(=O)N[C@@H](CS)C(=O)O [L-NAC, N-acetyl-L-cysteine]
reduction of MMP-2 activity/secretion (MMP-2; 10 mM, 24 h): 69% | reduction of MMP-9 activity/secretion (MMP-9; 10 mM, 24 h): 73%

NCCCNCCS [WR-1065, 2-[(aminopropyl)amino]ethanethiol]
ability to reduce MMP-2 secretion at 48 h and 72 h (MMP-2; 40 μM SH, continuous exposure): lost | reduction of MMP-2 activity/secretion relative to control (MMP-2; 40 μM WR-1065 (SH), 24 h (b119 prints 45 h)): 45% | MMP-2 activity, of control levels (MMP-2; 40 μM, 24 h exposure): 55% | inhibition of MMP-2 activity/secretion (MMP-2; 24 h): completely inhibiting | inhibition of MMP-2 activity/secretion (MMP-2; 24 h, listed as SH): completely inhibited | ability to affect MMP-9 activity at 48 h and 72 h (MMP-9; 40 μM SH, continuous exposure): lost | reduction of MMP-9 activity relative to control (MMP-9; 40 μM WR-1065 (SH), 24 h): 5% | inhibition of MMP-9 activity/secretion (MMP-9; 24 h): completely inhibiting | inhibition of MMP-9 activity/secretion (MMP-9; 24 h, listed as SH): completely inhibited | peak level of MnSOD expression relative to normal human endothelial cells exposed to WR-1065 (MnSOD gene expression; U87 glioma cells versus normal human endothelial cells): almost twice | MnSOD gene expression during an additional 12 h (MnSOD gene expression; human glioma U87 cells, 12 to 24 h): remained at that elevated level | MnSOD gene expression enhanced (MnSOD gene expression; human glioma U87 cells, after 12 h): 2.5 fold | MnSOD gene expression induced as compared to untreated controls (MnSOD gene expression; human glioma tumor cells, FIG. 6 legend): over 3 fold

NCCCNCCSP(=O)(O)O [WR-2721, S-2-(3-aminopropylamino)ethyl phosphorothioic acid]
number of spontaneous metastases (mean ± s.e.) (MCa-K): 1.7 ± 1.3 | number of spontaneous metastases (mean ± s.e.) (OCa-I): 0.5 ± 0.14 | net charge ([1]; disulfide form): +4 | net charge ([1]; thiol form): +2 | enhancement of angiostatin levels found in control mice (angiostatin; Amifostine injections, 50 mg/kg i.p. (FIG. 2)): four-fold | angiostatin level after removal of tumors (angiostatin; continued Amifostine treatment following tumor removal): equal to presurgery levels | induction of angiostatin production (angiostatin; tumor-free and tumor-bearing mice (FIG. 2)): effective in inducing angiostatin production | concentration of WR-2721 corresponding to dose [2]: about 1.0 mM | doses at which the antimutagenic effect diminishes [3]: less than 10 mg/kg | number of spontaneous metastases (mean ± s.e.) (SA-NH; 50 mg/kg WR-2721 i.p., lung metastases per mouse, Sa-NH tumor): 2.9 ± 1.1 | reduction in the development of spontaneous metastases in the lungs (SA-NH; 50 to 100 mg/kg every other day for six days and twice after surgical removal of tumor): four-fold | probability of developing spontaneous metastases (FIG. 1) (SA-NH; listed as Amifostine): actually reduced it | probability of developing spontaneous metastases (FIG. 1) (SA-NH; listed as amifostine): reduces the chances of developing spontaneous metastases | cytoprotection at doses below 100 mg/kg [4]: completely ineffective | dose required for maximum cytoprotection [4]: 400 mg/kg

Tumor Necrosis Factor alpha [TNFα]
suppression of MMP-2 secretion at 48 h and 72 h (MMP-2; [5]): still able to suppress | MMP-9 activity at 48 h and 72 h (MMP-9; [5]): continued to cause enhanced activity
